Measurements taken from patent publication US20240041991A1, “STABLE LIQUID DISPERSINB COMPOSITIONS” (KANE BIOTECH INC., priority 2020, published 2024).
Read-outs that look alike come from different tables or passages of the source. Marks after values point to notes of the source that are not given here.

Assays:
[1] = system: DispersinB; conditions: 50 mM citrate buffer pH 5.9, 100 mM K2SO4 sample = 100%
[2] = system: DispersinB; conditions: 50 mM Citrate, 100 mM NaCl pH 5.9 control = 100%
Method: DispersinB enzyme solutions (100 μg/ml) were prepared in 50 mM citrate buffer, containing 200 mM K2SO4. The pH was adjusted (5.4 to 5.9). DispersinB enzymatic activity was measured using β-N-Acetylglucosaminidase assay kit from Sigma (product code CS0780) in 96-well microtiter plate following the manufacturer's instructions. The data was represented as % enzymatic activity in comparison to enzyme activity of control sample that contained 100 μg/ml DispersinB in 50 mM citrate buffer (pH 5.9) containing 100 mM NaCl Activity of the control sample was considered 100%.

[3] = system: DispersinB; assay type: biochemical, Aggregatibacter actinomycetemcomitans; conditions: 50 mM citrate buffer pH 5.9, salt concentration as in label, control with no salts = 100%
Excerpt: Activity of the control sample with no salts was considered 100%.

For `O=S(=O)([O-])[O-].[K+].[K+]` [K2SO4, potassium sulfate], the “% Activity” value ([1]; 100 mM K2SO4) was 100%, the “% Activity” value ([1]; 150 mM K2SO4) was 143* % and the “% Activity” value ([1]; 200 mM K2SO4) was 149* %. For the same compound, the “% Activity” value ([1]; 250 mM K2SO4) was 159* %, the “% Activity” value ([1]; 300 mM K2SO4) was 141* % and the “% Activity” value ([2]; pH 4) was 11.06^ab %. For the same compound, the “% Activity” value ([2]; pH 4.2) was 22.55^ab %, the “% Activity” value ([2]; pH 4.4) was 34.17^ab % and the “% Activity” value ([2]; pH 4.6) was 57.21 ^ab %. The “% Activity” value ([2]; pH 4.8) was 81.09 ^ab %, the “% Activity” value ([2]; pH 5) was 118.00 ^ab % and the “% Activity” value ([2]; pH 5.1) was 133.61 ^ab %. The “% Activity” value ([2]; pH 5.2) was 149.86 ^ab %, the “% Activity” value ([2]; pH 5.3) was 142.65 ^ab % and the “% Activity” value ([2]; pH 5.4) was 162.25^a %. The “% Activity” value ([2]; pH 5.5) was 172.83^a %, the “% Activity” value ([2]; pH 5.6) was 166.67^a % and the “% Activity” value ([2]; pH 5.7) was 154.62^a %. The “% Activity” value ([2]; pH 5.8) was 146.99 ^ab %, the “% Activity” value ([2]; pH 5.9) was 143.77 ^ab % and the “% Activity” value ([2]; pH 6) was 130.81 ^ab %. The “% enzymatic activity of DispersinB (Mean)” value ([3]; listed as 100 mM K2SO4) was 211* % and the “% enzymatic activity of DispersinB (Mean)” value ([3]; listed as 200 mM K2SO4) was 289* %.
